BindingDB's records for doi:10.1016/j.bmcl.2012.09.081 (2012)
pIC50: −log10 of the molar value.

Assay: Inhibition of tobacco hornworm V-ATPase c subunit

## CNC(=O)O[C@@H](CC(C)C)c1nc([C@H]2OC(=O)/C(C)=C/C/C(C)=C/[C@@H](OC(=O)c3ccc(C4(C(F)(F)F)N=N4)cc3)[C@@H](C)\C=C(C)/C=C(C)\C=C\[C@@H](OC(=O)c3ccc(C4(C(F)(F)F)N=N4)cc3)[C@H](C)[C@H](OC)/C(C)=C/C=C/[C@@H]2C)cs1
  pIC50: 6.22
